# Laboratory results reported in patent US20070010671A1, “Novel quinazoline derivatives and methods of treatment related to the use thereof” (priority 2003, published 2007).
# Target: MCH receptor (Homo sapiens, UniProt Q99705)
# Assay: High throughput functional screening FLIPR/FDSS6000: inhibition of MCH-evoked intracellular Ca2+ changes
# Assay type: cell-based
# Details: class by percent of control at 10^-7 M or by IC50; read-out: class
# Procedure, shortened: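 Cells expressing a non-endogenous, constitutively active MCH receptor were loaded with 4 μM Fluo4-AM (with probenecid) for 1 hr at 37° C. Test compound was preincubated 3 min at 37° C before 50 nM MCH was added. The [Ca2+]i transient was read at Ex 488/Em 530 nm for 290 s.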
row,Compound,IC50
1,CC(=O)c1ccc(NC(=O)N[C@H]2CC[C@@H](Nc3nc(N(C)C)c4ccccc4n3)CC2)cc1 [compound 6],> 200 nM
2,"CN(C)c1nc(N[C@H]2CC[C@@H](NC(=O)Nc3ccccc3-c3ccccc3)CC2)nc2ccccc12 [compound 11, N-biphenyl-2-yl-N′-(cis-4-{[4-(dimethylamino)quinazolin-2-yl]amino}cyclohexyl)urea]",< 50 nM
3,"CCCCNC(=O)N[C@H]1CC[C@@H](Nc2nc(N(C)C)c3ccccc3n2)CC1 [compound 13, N-butyl-N′-(cis-4-{[4-(dimethylamino)quinazolin-2-yl]amino}cyclohexyl)urea]",< 50 nM
4,CN(C)c1nc(N[C@H]2CC[C@@H](NC(=O)Nc3cccc(Cl)c3)CC2)nc2ccccc12 [compound 14],> 200 nM
5,CN(C)c1nc(N[C@H]2CC[C@@H](NC(=O)Nc3ccc(Cl)cc3)CC2)nc2ccccc12 [compound 15],> 200 nM

# More lines, now with the values ahead:
row,IC50,Compound
1,> 200 nM,CC(=O)c1cccc(NC(=O)N[C@H]2CC[C@@H](Nc3nc(N(C)C)c4ccccc4n3)CC2)c1 [compound 4]
2,> 200 nM,CN(C)c1nc(N[C@H]2CC[C@@H](NC(=O)NC(=O)c3ccccc3)CC2)nc2ccccc12 [compound 7]
3,> 200 nM,CN(C)c1nc(N[C@H]2CC[C@@H](NC(=O)Nc3cc(C(F)(F)F)cc(C(F)(F)F)c3)CC2)nc2ccccc12 [compound 8]
4,50 to 200 nM,"CN(C)c1nc(N[C@H]2CC[C@@H](NC(=O)NCc3ccccc3)CC2)nc2ccccc12 [compound 9, N-benzyl-N′-(cis-4-{[4-(dimethylamino)quinazolin-2-yl]amino}cyclohexyl)urea]"
5,< 50 nM,"CN(C)c1nc(N[C@H]2CC[C@@H](NC(=O)Nc3ccccc3Br)CC2)nc2ccccc12 [compound 10, N-(2-bromophenyl)-N′-(cis-4-{[4-(dimethylamino)quinazolin-2-yl]amino}cyclohexyl)urea]"
6,50 to 200 nM,"CN(C)c1nc(N[C@H]2CC[C@@H](NC(=O)Nc3ccc(Br)cc3)CC2)nc2ccccc12 [compound 12, N-(4-bromophenyl)-N′-(cis-4-{[4-(dimethylamino)quinazolin-2-yl]amino}cyclohexyl)urea]"

# Same assay, conditions: class by percent of control at 10^−7 M or by IC50; read-out: class
row,Compound,IC50
1,"CN(C)c1nc(N[C@H]2CC[C@@H](C(=O)NCc3ccc(S(C)(=O)=O)cc3)CC2)nc2ccccc12 [Example 1195, cis-4-{[4-(dimethylamino)quinazolin-2-yl]amino}-N-[4-(methylsulfonyl)benzyl]cyclohexanecarboxamide]",< 50 nM
2,"CN(C)c1nc(N[C@H]2CC[C@@H](C(=O)Nc3nc(C(C)(C)C)c(Br)s3)CC2)nc2ccccc12 [Example 1199, cis-N-(5-bromo-4-tert-butyl-1,3-thiazol-2-yl)-4-{[4(dimethylamino)quinazolin-2-yl]amino}cyclohexanecarboxamide]",> 200 nM
3,"CCC(=O)Nc1cccc(C(=O)N[C@H]2CC[C@@H](Nc3nc(N(C)C)c4ccccc4n3)CC2)c1 [Example 1200, N-(cis-4-{[4-(dimethylamino)quinazolin-2-yl]amino}cyclohexyl)-3-(propionylamino)benzamide]",< 50 nM
4,"CC(C)CC(=O)Nc1cccc(C(=O)N[C@H]2CC[C@@H](Nc3nc(N(C)C)c4ccccc4n3)CC2)c1 [Example 1201, N-(cis-4-{[4-(dimethylamino)quinazolin-2-yl]amino}cyclohexyl)-3-[(3-methylbutanoyl)amino]benzamide]",50 to 200 nM
5,"CN(C)c1nc(N[C@H]2CC[C@@H](NC(=O)c3cccc(NC(=O)C(C)(C)C)c3)CC2)nc2ccccc12 [Example 1202, N-(cis-4-{(4-(dimethylamino)quinazolin-2-yl]amino}cyclohexyl)-3-[(2,2-dimethylpropanoyl)amino]benzamide]",50 to 200 nM
6,"CN(C)c1nc(N[C@H]2CC[C@@H](NC(=O)c3cccc(NC(=O)C4CCCC4)c3)CC2)nc2ccccc12 [Example 1203, 3-[(cyclopentylcarbonyl)amino]-N-(cis-4-{[4-(dimethylamino)quinazolin-2-yl]amino}cyclohexyl)benzamide]",< 50 nM
7,"CC(=O)Nc1cccc(C(=O)N[C@H]2CC[C@@H](Nc3nc(N(C)C)c4ccccc4n3)CC2)c1 [Example 1204, 3-(acetylamino)-N-(cis-4-{[4-(dimethylamino)quinazolin-2-yl]amino}cyclohexyl)benzamide]",< 50 nM
8,"Cc1ccc(C(=O)N[C@H]2CC[C@@H](Nc3nc(N(C)C)c4cc(F)c(F)cc4n3)CC2)cc1 [Example 1206, N-(cis-4-{[4-(dimethylamino)-6,7-difluoroquinazolin-2-yl]amino}cyclohexyl)-4-methylbenzamide]",< 50 nM
9,"CN(C)c1nc(N[C@H]2CC[C@@H](NC(=O)c3ccc(F)cc3)CC2)nc2cc(F)c(F)cc12 [Example 1207, N-(cis-4-{[4-(dimethylamino)-6,7-difluoroquinazolin-2-yl]amino}cyclohexyl)-4-fluorobenzamide]",< 50 nM
10,"CN(C)c1nc(N[C@H]2CC[C@@H](NC(=O)c3cccc(C(F)(F)F)c3)CC2)nc2cc(F)c(F)cc12 [Example 1210, N-(cis-4-{[4-(dimethylamino)-6,7-difluoroquinazolin-2-yl]amino}cyclohexyl)-3-(trifluoromethyl)benzamide]",< 50 nM

# Other lines, results leading:
row,IC50,Compound
1,< 50 nM,"CN(C)c1nc(N[C@H]2CC[C@@H](C(=O)NC3c4ccccc4-c4ccccc43)CC2)nc2ccccc12 [Example 1194, cis-4-{[4-(dimethylamino)quinazolin-2-yl]amino}-N-9H-fluoren-9-ylcyclohexanecarboxamide]"
2,< 50 nM,"CN(C)c1nc(N[C@H]2CC[C@@H](C(=O)Nc3ccc(Cl)nc3)CC2)nc2ccccc12 [Example 1196, cis-N-(6-chloropyridin-3-yl)-4-{[4-(dimethylamino)quinazolin-2-yl]amino}cyclohexanecarboxamide]"
3,> 200 nM,"CN(C)c1nc(N[C@H]2CC[C@@H](C(=O)Nc3cccnc3Cl)CC2)nc2ccccc12 [Example 1197, cis-N-(2-chloropyridin-3-yl)-4-{[4-(dimethylamino)quinazolin-2-yl]amino}cyclohexanecarboxamide]"
4,> 200 nM,"CN(C)c1nc(N[C@H]2CC[C@@H](C(=O)Nc3nc4ccccc4[nH]3)CC2)nc2ccccc12 [Example 1198, cis-N-1H-benzimidazol-2-yl-4-{[4-(dimethylamino)quinazolin-2-yl]amino}cyclohexanecarboxamide]"
5,< 50 nM,"CN(C)c1nc(N[C@H]2CC[C@@H](NC(=O)c3ccccc3)CC2)nc2cc(F)c(F)cc12 [Example 1205, N-(cis-4-{[4-(dimethylamino)-6,7-difluoroquinazolin-2-yl]amino}cyclohexyl)benzamide]"
6,< 50 nM,"COc1cccc(C(=O)N[C@H]2CC[C@@H](Nc3nc(N(C)C)c4cc(F)c(F)cc4n3)CC2)c1 [Example 1208, N-(cis-4-{[4-(dimethylamino)-6,7-difluoroquinazolin-2-yl]amino}cyclohexyl)-3-methoxybenzamide]"
7,< 50 nM,"CN(C)c1nc(N[C@H]2CC[C@@H](NC(=O)c3ccc(F)c(F)c3)CC2)nc2cc(F)c(F)cc12 [Example 1209, N-(cis-4-{[4-(dimethylamino)-6,7-difluoroquinazolin-2-yl]amino}cyclohexyl)-3,4-difluorobenzamide]"
8,> 200 nM,"CN(C)c1nc(N[C@H]2CC[C@@H](NC(=O)c3ccc(OC(F)(F)F)cc3)CC2)nc2cc(F)c(F)cc12 [Example 1211, N-(cis-4-{[4-(dimethylamino)-6,7-difluoroquinazolin-2-yl]amino}cyclohexyl)-4-(trifluoromethoxy)benzamide]"
